Measurements as given in a melting point compilation (Tetko et al.; mined from patent text by program, amines drawn as free bases though some values may be those of a salt).

melting point [°C] | SMILES
95 to 99 | CN(CCc1cccs1)C(=O)C12CC3CC(CC(C3)C1)C2
247 | CC1Cc2nc(-c3ccccc3)[nH]c(=O)c2CC1S(=O)(=O)c1ccccc1 (configuration not stated)
170 to 172 | CC1(C)CN=C(NN=C(C=Cc2ccc(OC(F)(F)F)cc2)C=Cc2ccc(OC(F)(F)F)cc2)NC1
92 to 93 | OCc1csc(-c2ccccc2)c1
148 to 151 | O=C1c2ccccc2-c2ccccc2C1(O)C(F)(F)F (configuration not stated)
202 to 204 | CC1(C)CC(=O)c2c(OC3CCC3)sc(-c3cc[nH]n3)c2C1
134 to 136 | CC(Cn1ncnn1)n1nnc2cc3c(=O)n(CC4CC4)nnc3cc2c1=O (configuration not stated)
107 | CN(C)C(CNc1c(C#N)cnn2cccc12)c1ccco1 (configuration not stated)
163 to 165 | O=[N+]([O-])c1cc2ccccc2c2nccnc12
380 to 381 | Cc1cccc(-c2nc(NC(=O)c3ccc(C(=O)O)cc3)sc2-c2ccncn2)c1
184 to 186 | CC(=O)Nc1ccc(S(=O)(=O)N[C@H]2COCOC[C@H]2OC(C)=O)cc1 (relative stereo)
91 to 111 | COc1cc2c(cc1Nc1ncc(Cl)c(Nc3cccc(N4CCOCC4)c3)n1)CCN(CC(=O)N(C)C)CC2
95 to 97 | COc1ccc(N2CCOCC2)c2sc(C(=O)NC3CCN(C(=O)OC(C)(C)C)CCC3=O)nc12 (configuration not stated)
175 to 176 | C=CCOc1cc(O)c(C#N)c(Cl)c1
153 to 154 | CCOC(=O)C(C)(NC(=O)Cc1ccc(O)c2ncccc12)C(=O)OCC
202 to 203 | CCCCc1c2c(nn1C)c(N)nc1ccccc12
152 | COP(=O)(Cc1ccc(-c2nc3ccccc3s2)nc1)OC
220 to 222 | N#Cc1ccc2c(c1)S(=O)c1ccccc1C=C2 (configuration not stated)
211 to 213 | Cc1nc2ccccc2cc1NC(=S)N1CCN(c2cc(F)cc(F)c2)CC1
102 to 104 | COc1cc(F)ccc1OCCN1C(=O)c2ccccc2C1=O
212 to 214 | N#CCc1cc(-c2ccc(Cl)cc2)n(-c2ccc(S(N)(=O)=O)cc2)n1
115 to 130 | CCOC(=O)CCCn1nnnc1-c1ccc2c(c1)[C@@H](Nc1ccnc(SC)n1)[C@](C)(O)C(C)(C)O2
173 to 176 | CSc1ccc2nc(NN)sc2c1

melting point [°C] | SMILES
192 to 194 | Nc1ccc2c(c1)CC(CC(=O)O)C2=O (configuration not stated)
203 to 204 | Cc1cc(C)c2nc(C3CC3)n(Cc3ncc(C4(C(=O)O)CC=CC4)cn3)c2n1
104 to 105 | N#CC1CCN1C(c1ccccc1)c1ccccc1 (configuration not stated)
145 to 147 | Cc1ncc(C(=O)Nc2ccc(-n3nc(C(F)(F)F)cc3C3CC3)cc2)c(C)n1
84 to 86 | CN(C)CCOc1ccc(O)c(C=NCCN=Cc2cc(OCCN(C)C)ccc2O)c1
109 to 110 | O=C1c2ccccc2C(=O)N1CCCCCCSc1ccc2ccccc2c1
178 to 180 | O=[N+]([O-])c1cccnc1NCCc1c[nH]cn1
118 to 120 | O=C1CCC(N2Cc3c(OCC4CCCOC4)cccc3C2=O)C(=O)N1 (configuration not stated)
69 to 71 | O=NN(CCCl)C(=O)NC1OC(CO)C(O)C1O (configuration not stated)
60 | COC(=O)Cc1ccc(OCCNC(=O)C2Cc3ccccc3N2S(=O)(=O)c2ccc(-c3cccc(C(F)(F)F)c3)c(Cl)c2)cc1 (configuration not stated)
88 to 89 | NC(c1cc(-c2ccc(F)cc2)c(-c2ccc(F)cc2)[nH]1)(C(F)(F)F)C(F)(F)F
168 | O=c1oc(=O)n(Cc2ccccc2)c2ncccc12
108 | CCCCCCCNC(=O)N(C)c1cccc(-c2ccc(CCC(=O)O)cc2)n1
198 to 200 | Cc1cc(N)ncc1I
173 | O=[PH](O)Cc1cccc(P(c2ccccc2)c2ccccc2)c1
190 | COc1ccc(CCN(C)CCOc2ccc(NC(=O)c3cccc4c(=O)c5cccc(OC)c5[nH]c34)cc2)cc1OC
180 to 186 | COc1ccc(C(=NO)c2c(F)cccc2F)c(Cl)c1Cl
117 to 118 | C=C(c1ccc(I)cc1)C(O)(Cn1cncn1)c1ccccc1F (configuration not stated)
173 to 174 | c1ccc(C2=NN=C(N3CCOCC3)SC2)cc1
117 to 119 | CCCCCCCCCCCCC(C)CNc1cc(C)c([N+](=O)[O-])cc1C(N)=O (configuration not stated)
79 to 82 | Brc1csc(C#Cc2ccccc2)n1
128 to 130 | Cc1cccc2nc3n(c12)CC(c1ccccn1)S3 (configuration not stated)
134 to 135 | CSc1nc(NCc2ccc(-c3ccccc3)cc2)n2ncc(C(C)C)c2n1

melting point [°C] | SMILES
255 to 260 | CC(=O)c1cc([N+](=O)[O-])c(N)cc1C#N
99 to 110 | COc1cc(OCc2ccccn2)ccc1/C=C/c1cc(/C=C/c2cccc3cc[nH]c23)n[nH]1
203 to 206 | CN(C)N=Cc1cc2c(cn1)[nH]c1ccccc12
95 | NC(=O)N1CCCC1COc1cncc(Cl)c1 (configuration not stated)
86 to 88 | CCOP(=O)(Cc1ccc2nc(-c3ccc(OC)cc3)oc2c1)OCC
182 to 183 | O=C1NC(=O)C(Sc2ccc3cc(O)ccc3c2)S1 (configuration not stated)
98 to 100 | CC1(C)O[C@H](CC#N)C[C@H](CC(=O)N(c2ccccc2)c2ccccc2)O1
120 to 121 | CCOC(OCC)c1cc(NC(c2ccccc2)(c2ccccc2)c2ccccc2)c(F)c(CC2CC2)n1
146 to 148 | O=C(O)c1ccc(CCCC2SCC(=O)N2CCC2(O)CCCCCC2)cc1 (configuration not stated)
213 to 215 | N#CC1=CCC23OCOC2=C1c1c(C#N)cccc1OCO3 (configuration not stated)
140 to 145 | CN(Cc1cn[nH]c1)C1CCN(C(=O)c2ccc(Nc3nccc(Nc4ccc(F)cc4)n3)cc2)CC1
74 to 75 | C(=C\c1nc(CSc2ccc(CCCn3ccnc3)cc2)co1)/c1ccccc1
102 to 105 | Cc1cc(C(F)(F)F)nn1CC(=O)N1CCC(c2nc(NC(=O)C3=C(O)CCCC3=O)cs2)CC1
131 to 139 | Cc1ccc(-c2nc(C)ccc2N2CCN(c3ccc(C)cc3)CC2)cc1
76 to 78 | CCOC(=O)c1ccc(OC2CCN(C(=O)OC(C)(C)C)CC2)cc1
219 to 226 | Cc1ccc(Cl)c(Nc2ccccc2-c2nnc(N)s2)c1Cl
250 | CN(C(=O)Nc1ccc(Cl)cc1)c1nnc(Br)s1
74 to 75 | CC(C)OC(=O)C=Cc1cc([N+](=O)[O-])ccc1Cl
100 to 102 | CC1CC(=O)c2cc(Cl)ccc2O1 (configuration not stated)
133 to 137 | CC(=O)SCC(C)C(=O)N(C(C)C(=O)O)C1CCc2ccccc21 (configuration not stated)
222 to 223 | CCCCc1c2c(nn1C(C)(C)C)c(N)nc1ccccc12
107 | Cc1cc(-c2nn(C3CCCC3)c3c(F)cccc23)ccc1O
70 to 74 | CCOP(=O)(OCC)C1=C(C(=O)OC(c2ccccc2)c2ccccc2)N2C(=O)C(NC(=O)COc3ccccc3)C2CC1 (configuration not stated)

SMILES | melting point [°C]
CCC(F)c1cc(N2CCNCC2)cc(-c2ccccc2C#N)c1Cl (configuration not stated) | 159
CN1Cc2c(C#CC(C)(C)O)ncn2-c2ccccc2C1=O | 168 to 169
CCOC(=O)C1CCC2(C)C(=CC(=O)C3C4CCC(=O)C4(C)CCC32)C1 (configuration not stated) | 187 to 188
